PubChem BioAssay AID242 (DTP/NCI, 2004)
Where “and” joins values, the source holds several entries; their conditions need not be identical. Equal entries are not always repeated. Inconclusive results and toxic doses are left out.

Tested on: BDF1 mice, Lymphoma 8 ip, survival T/C
Experiment: NCI In Vivo Anticancer Drug Screen. Data for tumor model Lymphoma 8 (intraperitoneal) in B6D2F1 (BDF1) mice
Details: higher = longer survival
Procedure: The antitumor activity of compounds was measured in mice bearing transplantable tumors. Survival or tumor size were measured and the results are expressed as the measurement made in the treated group (T) divided by the measurement made in the vehicle treated control group (C). The tumor model used in this assay is Lymphoma 8 (intraperitoneal) in B6D2F1 (BDF1) mice

[1] = endpoint: survival time, mean or median, dose: 12.5 mg/kg/injection, schedule: Q01DX015 (ip), vehicle: carboxymethylcellulose (CMC)
[2] = endpoint: survival time, mean or median, dose: 25.0 mg/kg/injection, schedule: Q01DX015 (ip), vehicle: carboxymethylcellulose (CMC)
[3] = endpoint: survival time, mean or median, dose: 50.0 mg/kg/injection, schedule: Q01DX015 (ip), vehicle: carboxymethylcellulose (CMC)
[4] = endpoint: survival time, mean or median, dose: 100.0 mg/kg/injection, schedule: Q01DX015 (ip), vehicle: carboxymethylcellulose (CMC)
[5] = endpoint: survival time, mean or median, dose: 125.0 mg/kg/injection, schedule: Q01DX010 (ip), vehicle: saline
[6] = endpoint: survival time, mean or median, dose: 250.0 mg/kg/injection, schedule: Q01DX010 (ip), vehicle: saline
[7] = endpoint: survival time, mean or median, dose: 3.13 mg/kg/injection, schedule: Q01DX010 (ip), vehicle: saline
[8] = endpoint: survival time, mean or median, dose: 6.25 mg/kg/injection, schedule: Q01DX010 (ip), vehicle: saline
[9] = endpoint: survival time, mean or median, dose: 12.5 mg/kg/injection, schedule: Q01DX010 (ip), vehicle: saline
[10] = endpoint: survival time, mean or median, dose: 5.0 mg/kg/injection, schedule: Q01DX010 (ip), vehicle: saline
[11] = endpoint: survival time, mean or median, dose: 20.0 mg/kg/injection, schedule: Q01DX010 (ip), vehicle: saline
[12] = endpoint: survival time, mean or median, dose: 0.5 mg/kg/injection, schedule: Q01DX010 (ip), vehicle: saline

For `N#CCSc1ncnc2nc[nH]c12`, the T/C (endpoint: survival time, mean or median, dose: 15.0 mg/kg/injection, schedule: Q01DX010 (ip), vehicle: saline) was 100 % of control, the T/C (endpoint: survival time, mean or median, dose: 30.0 mg/kg/injection, schedule: Q01DX010 (ip), vehicle: saline) was 95 % of control and 104 % of control and the T/C (endpoint: survival time, mean or median, dose: 60.0 mg/kg/injection, schedule: Q01DX010 (ip), vehicle: saline) was 100 % of control. The T/C (endpoint: survival time, mean or median, dose: 120.0 mg/kg/injection, schedule: Q01DX010 (ip), vehicle: saline) was 100 % of control.

`O=NN(CCCl)C(=O)NCCCl` was tested, and the T/C (endpoint: survival time, mean or median, dose: 2.64 mg/kg/injection, schedule: Q01DX015 (ip), vehicle: saline) was 90 % of control.

For `COc1ccc(C[n+]2cc([O-])on2)cc1`, the T/C [1] was 99 % of control, the T/C [2] was 106 % of control and the T/C [3] was 100 % of control. The T/C [4] was 113 % of control.

With `Nc1c(Br)cc2c(c1Br)Cc1cc([N+](=O)[O-])ccc1-2` the T/C (endpoint: survival time, mean or median, dose: 62.5 mg/kg/injection, schedule: Q01DX015 (ip), vehicle: carboxymethylcellulose (CMC)) was 88 % of control and the T/C (endpoint: survival time, mean or median, dose: 125.0 mg/kg/injection, schedule: Q01DX015 (ip), vehicle: carboxymethylcellulose (CMC)) was 87 % of control.

`CCCSc1ncnc2nc[nH]c12` was tested, and the T/C (endpoint: survival time, mean or median, dose: 31.3 mg/kg/injection, schedule: Q01DX010 (ip), vehicle: saline) was 100 % of control and 113 % of control, the T/C (endpoint: survival time, mean or median, dose: 62.5 mg/kg/injection, schedule: Q01DX010 (ip), vehicle: saline) was 95 % of control and 100 % of control and the T/C [5] was 95 % of control and 104 % of control. The T/C [6] was 86 % of control.

With `Cn1c(O)c(N=NC(N)=S)c2ccccc21` the T/C (endpoint: survival time, mean or median, dose: 1.5 mg/kg/injection, schedule: Q01DX015 (ip), vehicle: carboxymethylcellulose (CMC)) was 100 % of control, the T/C (endpoint: survival time, mean or median, dose: 3.0 mg/kg/injection, schedule: Q01DX015 (ip), vehicle: carboxymethylcellulose (CMC)) was 98 % of control and the T/C (endpoint: survival time, mean or median, dose: 6.0 mg/kg/injection, schedule: Q01DX015 (ip), vehicle: carboxymethylcellulose (CMC)) was 99 % of control. The T/C [1] was 95 % of control, the T/C [2] was 97 % of control and the T/C [3] was 124 % of control. The T/C [4] was 117 % of control and the T/C (endpoint: survival time, mean or median, dose: 200.0 mg/kg/injection, schedule: Q01DX015 (ip), vehicle: carboxymethylcellulose (CMC)) was 115 % of control.

In the case of `CN(N=O)C(=O)N[C@@H](C=O)[C@@H](O)[C@H](O)[C@H](O)CO`, the T/C (endpoint: survival time, mean or median, dose: 12.5 mg/kg/injection, schedule: Q01DX008 (im), vehicle: saline) is reported as 124 % of control, the T/C (endpoint: survival time, mean or median, dose: 12.5 mg/kg/injection, schedule: Q01DX008 (ip), vehicle: saline) is reported as 116 % of control and the T/C (endpoint: survival time, mean or median, dose: 12.5 mg/kg/injection, schedule: Q01DX008 (iv), vehicle: saline) is reported as 97 % of control. For the same compound, the T/C (endpoint: survival time, mean or median, dose: 12.5 mg/kg/injection, schedule: Q01DX008 (sc), vehicle: saline) was 116 % of control, the T/C (endpoint: survival time, mean or median, dose: 25.0 mg/kg/injection, schedule: Q01DX008 (ip), vehicle: saline) was 115 % of control and the T/C (endpoint: survival time, mean or median, dose: 25.0 mg/kg/injection, schedule: Q01DX008 (iv), vehicle: saline) was 106 % of control. For the same compound, the T/C (endpoint: survival time, mean or median, dose: 25.0 mg/kg/injection, schedule: Q01DX008 (sc), vehicle: saline) was 124 % of control, the T/C (endpoint: survival time, mean or median, dose: 50.0 mg/kg/injection, schedule: Q01DX008 (iv), vehicle: saline) was 107 % of control and the T/C (endpoint: survival time, mean or median, dose: 100.0 mg/kg/injection, schedule: Q01DX008 (im), vehicle: saline) was 86 % of control. The T/C (endpoint: survival time, mean or median, dose: 100.0 mg/kg/injection, schedule: Q01DX008 (ip), vehicle: saline) was 96 % of control, the T/C (endpoint: survival time, mean or median, dose: 100.0 mg/kg/injection, schedule: Q01DX008 (iv), vehicle: saline) was 106 % of control and the T/C (endpoint: survival time, mean or median, dose: 100.0 mg/kg/injection, schedule: Q01DX Z (oral), vehicle: saline) was 100 % of control. For the same compound, the T/C (endpoint: survival time, mean or median, dose: 200.0 mg/kg/injection, schedule: Q01DX Z (oral), vehicle: saline) was 100 % of control, the T/C (endpoint: survival time, mean or median, dose: 400.0 mg/kg/injection, schedule: Q01DX Z (oral), vehicle: saline) was 117 % of control and the T/C (endpoint: survival time, mean or median, dose: 800.0 mg/kg/injection, schedule: Q01DX Z (oral), vehicle: saline) was 97 % of control.

For `C=CCSc1nc(N)nc2nc[nH]c12`, the T/C (endpoint: survival time, mean or median, dose: 16.0 mg/kg/injection, schedule: Q01DX015 (ip), vehicle: other) was 101 % of control, the T/C (endpoint: survival time, mean or median, dose: 31.0 mg/kg/injection, schedule: Q01DX015 (ip), vehicle: other) was 100 % of control and the T/C (endpoint: survival time, mean or median, dose: 62.5 mg/kg/injection, schedule: Q01DX015 (ip), vehicle: other) was 90 % of control.

With `O=C(O)CCCc1ccc(N(CCCl)CCCl)cc1` the T/C [7] was 100 % of control and 104 % of control, the T/C [8] was 104 % of control and 116 % of control and the T/C [9] was 104 % of control.

With `C[C@@H]1C[C@H]2CC[C@H](O2)[C@H](C)C(=O)O[C@@H](C)C[C@@H]2CC[C@@H](O2)[C@@H](C)C(=O)O[C@H](C)C[C@H]2CC[C@H](O2)[C@H](C)C(=O)O[C@@H](C)C[C@@H]2CC[C@@H](O2)[C@@H](C)C(=O)O1` the T/C (endpoint: survival time, mean or median, dose: 45.0 mg/kg/injection, schedule: Q01DX015 (ip), vehicle: other) was 102 % of control, the T/C (endpoint: survival time, mean or median, dose: 90.0 mg/kg/injection, schedule: Q01DX015 (ip), vehicle: other) was 94 % of control and the T/C (endpoint: survival time, mean or median, dose: 360.0 mg/kg/injection, schedule: Q01DX015 (ip), vehicle: other) was 88 % of control.

`NC(C/[N+]([O-])=N/O)C(=O)O` (stereo unspecified) was tested, and the T/C (endpoint: median survival time, dose: 12.5 mg/kg/injection, schedule: Q01DX009 (ip), vehicle: saline) was 113 % of control and the T/C (endpoint: median survival time, dose: 25.0 mg/kg/injection, schedule: Q01DX009 (ip), vehicle: saline) was 117 % of control.

In the case of `CCOC(N)=O`, the T/C [5] is reported as 105 % of control, the T/C [6] is reported as 100 % of control and the T/C (endpoint: survival time, mean or median, dose: 500.0 mg/kg/injection, schedule: Q01DX010 (ip), vehicle: saline) is reported as 100 % of control.

`O=c1[nH]cc(F)c(=O)[nH]1` was tested, and the T/C (endpoint: median survival time, dose: 28.8 mg/kg/injection, schedule: Q04DX003 (ip), vehicle: saline) was 155 % of control, the T/C (endpoint: median survival time, dose: 48.0 mg/kg/injection, schedule: Q04DX003 (ip), vehicle: saline) was 277 % of control and the T/C (endpoint: median survival time, dose: 80.0 mg/kg/injection, schedule: Q04DX003 (ip), vehicle: saline) was 331 % of control. For the same compound, the T/C [10] was 108 % of control and 114 % of control and the T/C [11] was 153 % of control and 158 % of control.

For `CCCCOP(=S)(N1CC1)N1CC1`, the T/C [12] was 100 % of control, the T/C (endpoint: survival time, mean or median, dose: 1.0 mg/kg/injection, schedule: Q01DX010 (ip), vehicle: saline) was 103 % of control and the T/C (endpoint: survival time, mean or median, dose: 2.0 mg/kg/injection, schedule: Q01DX010 (ip), vehicle: saline) was 106 % of control. For the same compound, the T/C (endpoint: survival time, mean or median, dose: 4.0 mg/kg/injection, schedule: Q01DX010 (ip), vehicle: saline) was 103 % of control.

In the case of `CN(C)c1ccc(/C=C/c2ccnc3ccccc23)cc1`, the T/C [10] is reported as 104 % of control and 118 % of control, the T/C (endpoint: survival time, mean or median, dose: 10.0 mg/kg/injection, schedule: Q01DX010 (ip), vehicle: saline) is reported as 86 % of control and 109 % of control and the T/C [11] is reported as 86 % of control and 104 % of control. For the same compound, the T/C (endpoint: survival time, mean or median, dose: 40.0 mg/kg/injection, schedule: Q01DX010 (ip), vehicle: saline) was 95 % of control and 100 % of control.

For `CCCNc1ncnc2[nH]ncc12`, the T/C [7] was 104 % of control (2×) and 105 % of control, the T/C [8] was 105 % of control and 106 % of control and the T/C [9] was 90 % of control and 100 % of control and 114 % of control.

`NC(=O)c1cn(C2OC(CO)C(O)C2O)c2ncnc(N)c12` (stereo unspecified) was tested, and the T/C (endpoint: survival time, mean or median, dose: 0.5 mg/kg/injection, schedule: Q01DX015 (ip), vehicle: carboxymethylcellulose (CMC)) was 106 % of control, the T/C (endpoint: survival time, mean or median, dose: 1.0 mg/kg/injection, schedule: Q01DX015 (ip), vehicle: carboxymethylcellulose (CMC)) was 116 % of control and the T/C (endpoint: survival time, mean or median, dose: 2.0 mg/kg/injection, schedule: Q01DX015 (ip), vehicle: carboxymethylcellulose (CMC)) was 94 % of control.

`CS(=O)(=O)OCCN(CCOS(C)(=O)=O)c1ccc(N=O)cc1` was tested, and the T/C (endpoint: survival time, mean or median, dose: 0.25 mg/kg/injection, schedule: Q01DX010 (ip), vehicle: saline) was 121 % of control, the T/C [12] was 110 % of control and the T/C (endpoint: survival time, mean or median, dose: 63.0 micrograms/kg/injection, schedule: Q01DX010 (ip), vehicle: saline) was 113 % of control. The T/C (endpoint: survival time, mean or median, dose: 125.0 micrograms/kg/injection, schedule: Q01DX010 (ip), vehicle: saline) was 120 % of control and the T/C (endpoint: survival time, mean or median, dose: 500.0 micrograms/kg/injection, schedule: Q01DX010 (ip), vehicle: saline) was 123 % of control.
